System: 323965-272-R-J2-PDC complex spheroid growth, % test/control
Assay: Anticancer human tumor 323965-272-R-J2-PDC patient-derived pancreatic carcinoma cell line growth inhibition [Asc]
Conditions: for IC50: curve of first compound; for viability, T/C: stronger effect = lower value
In short: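 Tumor cells were grown as complex spheroids with human endothelial cells (HUVEC) and human mesenchymal stem cells as stroma. Agents were tested alone and in combination, in half-log steps down from the clinical Cmax, or from 10 microM where Cmax was unknown.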

[1] = second compound 0.00316 µM, first compound 0.00316 µM
[2] = second compound 0.00316 µM, first compound 0.01 µM
[3] = second compound 0.00316 µM, first compound 0.0316 µM
[4] = second compound 0.00316 µM, first compound 0.1 µM
[5] = second compound 0.00316 µM, first compound 0.316 µM
[6] = second compound 0.00316 µM, first compound 1 µM
[7] = second compound 0.01 µM, first compound 0.00316 µM
[8] = second compound 0.01 µM, first compound 0.01 µM
[9] = second compound 0.01 µM, first compound 0.0316 µM
[10] = second compound 0.01 µM, first compound 0.1 µM
[11] = second compound 0.01 µM, first compound 0.316 µM
[12] = second compound 0.01 µM, first compound 1 µM
[13] = second compound 0.0316 µM, first compound 0.00316 µM
[14] = second compound 0.0316 µM, first compound 0.01 µM
[15] = second compound 0.0316 µM, first compound 0.0316 µM
[16] = second compound 0.0316 µM, first compound 0.1 µM
[17] = second compound 0.0316 µM, first compound 0.316 µM
[18] = second compound 0.0316 µM, first compound 1 µM
[19] = second compound 0.1 µM, first compound 0.00316 µM
[20] = second compound 0.1 µM, first compound 0.01 µM
[21] = second compound 0.1 µM, first compound 0.0316 µM
[22] = second compound 0.1 µM, first compound 0.1 µM
[23] = second compound 0.1 µM, first compound 0.316 µM
[24] = second compound 0.1 µM, first compound 1 µM
[25] = second compound 0.316 µM, first compound 0.00316 µM
[26] = second compound 0.316 µM, first compound 0.01 µM
[27] = second compound 0.316 µM, first compound 0.0316 µM
[28] = second compound 0.316 µM, first compound 0.1 µM
[29] = second compound 0.316 µM, first compound 0.316 µM
[30] = second compound 0.316 µM, first compound 1 µM
[31] = second compound 1 µM, first compound 0.00316 µM
[32] = second compound 1 µM, first compound 0.01 µM
[33] = second compound 1 µM, first compound 0.0316 µM
[34] = second compound 1 µM, first compound 0.1 µM
[35] = second compound 1 µM, first compound 0.316 µM
[36] = second compound 1 µM, first compound 1 µM
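Further: compound exposure lasted 7 days starting three days after spheroid seeding.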
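Wherever viability, T/C is given: 100% = DMSO vehicle control wells with viability set relative to vehicle.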

With `CCN1CCN(Cc2ccc(Nc3ncc(F)c(-c4cc(F)c5nc(C)n(C(C)C)c5c4)n3)nc2)CC1` + CNC(C)C(=O)NC1CN(S(=O)(=O)c2cccc(S(=O)(=O)N3CCC4CCC(C(=O)NC(c5ccccc5)c5ccccc5)N4C(=O)C(NC(=O)C(C)NC)C3)c2)CCC2CCC(C(=O)NC(c3ccccc3)c3ccccc3)N2C1=O the IC50 (second compound 0.00316 µM) was over 1000 nM, the IC50 (second compound 0.01 µM) was over 1000 nM and the IC50 (second compound 0.0316 µM) was over 1000 nM. For the same compound, the IC50 (second compound 0.1 µM) was over 1000 nM, the IC50 (second compound 0.316 µM) was over 1000 nM and the IC50 (second compound 1 µM) was over 1000 nM. The viability, T/C [1] was 108%, the viability, T/C [2] was 88.7% and the viability, T/C [3] was 96.8%. It also gave a viability, T/C [4] of 83.6%, a viability, T/C [5] of 81.5% and a viability, T/C [6] of 77.2%. The viability, T/C [7] was 98.1%, the viability, T/C [8] was 95% and the viability, T/C [9] was 97.5%. It also gave a viability, T/C [10] of 70%, a viability, T/C [11] of 85.6% and a viability, T/C [12] of 79%. For the same compound, the viability, T/C [13] was 101%, the viability, T/C [14] was 95.3% and the viability, T/C [15] was 87.2%. It also gave a viability, T/C [16] of 76.1%, a viability, T/C [17] of 75% and a viability, T/C [18] of 72.4%. For the same compound, the viability, T/C [19] was 104%, the viability, T/C [20] was 106% and the viability, T/C [21] was 96.6%. It also gave a viability, T/C [22] of 76.5%, a viability, T/C [23] of 78.4% and a viability, T/C [24] of 82.5%. For the same compound, the viability, T/C [25] was 102%, the viability, T/C [26] was 101% and the viability, T/C [27] was 95.4%. It also gave a viability, T/C [28] of 69.6%, a viability, T/C [29] of 70.6% and a viability, T/C [30] of 83.6%. It also gave a viability, T/C [31] of 87.4%, a viability, T/C [32] of 85.9% and a viability, T/C [33] of 90.6%. The viability, T/C [34] was 67.7%, the viability, T/C [35] was 79.7% and the viability, T/C [36] was 74.2%.
`Cn1ncnc1[C@H]1c2n[nH]c(=O)c3cc(F)cc(c23)N[C@@H]1c1ccc(F)cc1` + CNC(C)C(=O)NC1CN(S(=O)(=O)c2cccc(S(=O)(=O)N3CCC4CCC(C(=O)NC(c5ccccc5)c5ccccc5)N4C(=O)C(NC(=O)C(C)NC)C3)c2)CCC2CCC(C(=O)NC(c3ccccc3)c3ccccc3)N2C1=O gave an IC50 (second compound 0.00316 µM) of under 0.316 nM, an IC50 (second compound 0.01 µM) of over 100 nM and an IC50 (second compound 0.0316 µM) of over 100 nM. It also gave an IC50 (second compound 0.1 µM) of over 100 nM, an IC50 (second compound 0.316 µM) of over 100 nM and an IC50 (second compound 1 µM) of over 100 nM. It also gave a viability, T/C (second compound 0.00316 µM, first compound 0.000316 µM) of 49.4%, a viability, T/C (second compound 0.00316 µM, first compound 0.001 µM) of 49.2% and a viability, T/C [1] of 46.2%. The viability, T/C [2] was 47.6%, the viability, T/C [3] was 49.5% and the viability, T/C [4] was 47.7%. It also gave a viability, T/C (second compound 0.01 µM, first compound 0.000316 µM) of 119%, a viability, T/C (second compound 0.01 µM, first compound 0.001 µM) of 92.3% and a viability, T/C [7] of 97.3%. It also gave a viability, T/C [8] of 90.1%, a viability, T/C [9] of 87.8% and a viability, T/C [10] of 85.5%. It also gave a viability, T/C (second compound 0.0316 µM, first compound 0.000316 µM) of 107%, a viability, T/C (second compound 0.0316 µM, first compound 0.001 µM) of 93.8% and a viability, T/C [13] of 87.6%. It also gave a viability, T/C [14] of 105%, a viability, T/C [15] of 92% and a viability, T/C [16] of 91%. For the same compound, the viability, T/C (second compound 0.1 µM, first compound 0.000316 µM) was 94.3%, the viability, T/C (second compound 0.1 µM, first compound 0.001 µM) was 106% and the viability, T/C [19] was 112%. The viability, T/C [20] was 97.6%, the viability, T/C [21] was 84% and the viability, T/C [22] was 91.7%. For the same compound, the viability, T/C (second compound 0.316 µM, first compound 0.000316 µM) was 103%, the viability, T/C (second compound 0.316 µM, first compound 0.001 µM) was 89.8% and the viability, T/C [25] was 101%. It also gave a viability, T/C [26] of 92.7%, a viability, T/C [27] of 88.2% and a viability, T/C [28] of 89%. It also gave a viability, T/C (second compound 1 µM, first compound 0.000316 µM) of 87.5%, a viability, T/C (second compound 1 µM, first compound 0.001 µM) of 90.7% and a viability, T/C [31] of 94.4%. For the same compound, the viability, T/C [32] was 83.7%, the viability, T/C [33] was 89.7% and the viability, T/C [34] was 86.3%.
Work on `O=C(c1ccc(F)c(F)c1Nc1ccc(I)cc1F)N1CC(O)([C@@H]2CCCCN2)C1` + CNC(C)C(=O)NC1CN(S(=O)(=O)c2cccc(S(=O)(=O)N3CCC4CCC(C(=O)NC(c5ccccc5)c5ccccc5)N4C(=O)C(NC(=O)C(C)NC)C3)c2)CCC2CCC(C(=O)NC(c3ccccc3)c3ccccc3)N2C1=O yielded an IC50 (second compound 0.00316 µM) of 97.8 nM, an IC50 (second compound 0.01 µM) of 77.1 nM and an IC50 (second compound 0.0316 µM) of 80.6 nM. It also gave an IC50 (second compound 0.1 µM) of 92.4 nM, an IC50 (second compound 0.316 µM) of 70.6 nM and an IC50 (second compound 1 µM) of 53.5 nM. For the same compound, the viability, T/C [1] was 117%, the viability, T/C [2] was 99.1% and the viability, T/C [3] was 77.5%. The viability, T/C [4] was 50.1%, the viability, T/C [5] was 27.3% and the viability, T/C [6] was 18.5%. It also gave a viability, T/C [7] of 105%, a viability, T/C [8] of 90.3% and a viability, T/C [9] of 60.8%. The viability, T/C [10] was 47.7%, the viability, T/C [11] was 28.2% and the viability, T/C [12] was 13.2%. It also gave a viability, T/C [13] of 94.5%, a viability, T/C [14] of 96.3% and a viability, T/C [15] of 64.3%. The viability, T/C [16] was 47.9%, the viability, T/C [17] was 25.7% and the viability, T/C [18] was 14.4%. For the same compound, the viability, T/C [19] was 102%, the viability, T/C [20] was 90.9% and the viability, T/C [21] was 81.6%. It also gave a viability, T/C [22] of 46.4%, a viability, T/C [23] of 23.6% and a viability, T/C [24] of 13.1%. For the same compound, the viability, T/C [25] was 110%, the viability, T/C [26] was 82.8% and the viability, T/C [27] was 71.5%. For the same compound, the viability, T/C [28] was 41.8%, the viability, T/C [29] was 22% and the viability, T/C [30] was 11.3%. The viability, T/C [31] was 92.8%, the viability, T/C [32] was 85.6% and the viability, T/C [33] was 57.3%. The viability, T/C [34] was 39%, the viability, T/C [35] was 18.8% and the viability, T/C [36] was 9.3%.

From PubChem BioAssay AID1963425 (Molecular Pharmacology Branch, DTP, NCI, 2024)
